Data as given in patent US7534766B2, “Glucuronide metabolites and epimers thereof of tigecycline” (Wyeth, priority 2004, dated 2009).
“Also recorded” adds a separate entry of the source.

Key:
[1] = LC/MS detection of tigecycline metabolites in CD-1 mouse serum and urine after intravenous tigecycline
Experimental: Fifteen male CD-1 mice, with an average weight of 31.3 g at the time of dosing, were used. Animals were given food and water ad libitum. Mice in the 0.5 and 2 hour blood collection groups were housed in standard cages, while those in the 4 hour blood collection group were housed in metabolism cages for the collection of urine. Mice were dosed by the Bioresources Department at Wyeth Research, Collegeville, Pa.
For mice and rabbits, the intravenous dosing solutions was prepared by dissolving 50 mg of tigecycline in 5.0 mL of 0.9% sterile saline solution to make a working stock solution. The working stock solution was diluted with 0.9% sterile saline solution to 0.5 mg/mL for mice and 4 mg/mL for rabbits. The mouse dose (5 mg/kg, 10 mL/kg) was administered as a bolus injection via the tail vein. The rabbit dose (4 mg/kg, 1 mL/kg) was administered as a bolus injection via the marginal vein of the ear.
For mice (n=5/time point), blood (approximately 0.7 mL) was collected by cardiac puncture at 0.5, 2 and 4 hours following administration of tigecycline. For rabbits, blood (approximately 7 mL) was collected via the ear vein at 0.5, 2 and 6 hours following the tigecycline dose. Serum was separated following clot formation at room temperature and centrifugation for 15 minutes at 4° C. and 3000 rpm. The serum was transferred to a fresh tube and was stored at approximately −70° C. until analysis as described below under “Serum Sample Preparation for LC/MS Analysis. In addition, urine was collected from mice in the 4 hour blood collection group and was stored at approximately −70° C. until analysis, as described below under “Urine Sample Preparation for LC/MS Analysis.”
Mouse urine was thawed and an aliquot (1 mL) transferred to a fresh tube. The sample was centrifuged at 14,000 rpm and room temperature for 10 minutes using a Model 5415C Eppendorf centrifuge (Brinkmann Instruments, Westbury, N.Y.) to remove any particulates. The sample was then transferred to a fresh tube and was analyzed by LC/MS, as described below under “Liquid Chromatography/Mass Spectrometry Analysis.”.
Mouse and rabbit serum samples were pooled at each collection time and analyzed for tigecycline, its epimer, tigecycline glucuronide (M7 and its epimer M6), 9-aminominocycline (M3) and N-acetyl-9-aminominocycline (M9 and its epimer M8). Aliquots of serum (500 μL) were transferred to new tubes and deuterated tigecycline (30 ng/mL final concentration) was added as an internal standard (quantitative analysis only). EDTA (40 μL of 0.5 M EDTA) was added to each sample and the samples vortex mixed. Acetonitrile (500 μL) was added to each sample, samples were vortex mixed and denatured protein separated by centrifugation at 14,000 rpm and room temperature for 10 minutes using a Model 5415C Eppendorf centrifuge (Brinkmann Instruments). The supernatant was transferred to a fresh tube and the solvent evaporated under a stream of nitrogen using a Turbovap Model LV evaporator (Caliper Life Sciences, Hopkinton, Mass.).
The HPLC system used for mass spectrometric analysis was a Waters Alliance Model 2695 HPLC system (Waters Corp., Milford, Mass.). It was equipped with a built-in autosampler and a Model 996 diode array UV detector. The UV detector was set to monitor 210-400 nm. Separations for metabolite characterization were accomplished on a Phenomenex Luna C18(2) column (150×2.1 mm, 5 μm) (Phenomenex, Torrance, Calif.) equipped with a Keystone Uniguard C18 guard column (10×2.1 mm) (Thermo Electron Corp., Bellefonte, Pa.). The column temperature was 25° C. The flow rate was 0.2 mL/min. Mobile phase A was 10 mM ammonium acetate in water and mobile phase B was acetonitrile.

[2] = Tigecycline metabolites identified in CD-1 mouse serum and urine and rabbit serum samples (LC/MS); type: in vivo
Experimental: The column temperature was 25° C. The flow rate was 0.2 mL/min. […] Gradient 1 was used for metabolite identification (qualitative analysis).
LC/MS analysis was conducted on extracts of serum and from CD-1 mice and rabbits, and on urine from CD-1 mice. The mass spectral data for tigecycline and its metabolites are discussed below.

[3] = in vivo
Experimental: An open-label, inpatient, multiple-dose tigecycline, single-dose [^14C]tigecycline metabolic disposition and mass balance study was performed in six healthy male volunteers. The clinical protocol called for twelve subjects. Of these twelve, six received the radioactive dose (subjects 1, 4, 5, 6, 7, and 8 with subject 8 later dropping out of the study.) Eligible subjects were selected based on inclusion/exclusion criteria, medical history, physical examination and additional procedures outlined in the study protocol. Each subject received a 100 mg loading dose on the morning of Day 1, followed by a 50 mg maintenance dose every 12 hours for an additional 5 doses. On the morning of study Day 4, six subjects received a single 50 mg dose of [^14C]tigecycline (50 μCi). Each tigecycline dose was administered via a 30-minute intravenous infusion.
Serum samples were collected for metabolite profiling prior to tigecycline dosing and 1, 4, 8, 24 and 48 hours following the [^14C]-labeled dose. For metabolite profiling, urine samples were collected at 0-4, 4-8, 8-24 and 24-48 hours and fecal samples were collected up to 48 hours following the [^14C]-labeled dose. Serum and urine samples, and fecal homogenates were shipped on dry ice to the Biotransformation Division of Drug Safety and Metabolism, Wyeth Research, Collegeville, Pa. The details of the sample collection and sample storage are described in the mass balance portion of the study. The 24-48 hour urine and fecal samples for subject #6 were incomplete since the subject withdrew from the study. While samples from this subject were used for metabolite profiling, the samples were not included in the mass balance calculations.
Individual serum samples, collected 1, 4 and 8 hours following the [^14C]-labeled tigecycline dose, were analyzed for metabolite profiles. […] In order to minimize the sample volume, each serum sample was divided into two samples of equal volume (approximately 9 Ml each) and extracted and analyzed separately. […] The residue was reconstituted in 300 μL of acetonitrile/water (1:9), centrifuged for 10 minutes at 14,000 rpm and room temperature using a Model 5415C Eppendorf centrifuge (Brinkmann Instruments, Westbury, N.Y.) and assayed for radioactivity and by HPLC. Selected samples were also analyzed by LC/MS.
HPLC analyses were performed using a Waters 2695 Alliance Separation Module (Waters Corp., Milford, Mass.), a Waters Model 2487 dual wavelength UV absorbance detector, set to monitor 350 nm, and was in-line with a Gilson 215 liquid handler (Gilson, Middleton, Wis.) equipped to collect fractions at 20 second intervals. Fractions were collected into 96-well deep well Luma plates and analyzed using TopCount NXT. […]

[4] = LC/MS detection of tigecycline and its metabolites in humans, dogs and/or rats; details: LC/MS of human serum, urine, feces and rat and dog plasma and urine
Experimental: Characterization of the tigecycline metabolites in human serum, urine and feces, and rat and dog plasma and urine was performed using LC/MS analysis (Table 5).

SMILES | observed in mouse urine by LC/MS ([1]; mouse, in vivo, iv, 5 mg/kg) | Species and matrix in which identified ([2]; in vivo, iv) | percent of serum radioactivity after correcting for the epimer formed during the extraction ([3]; male, human) | observed in mouse serum by LC/MS ([1]; male CD-1 mice, 5 mg/kg IV tigecycline, 0.5, 2, 4 hours, 5 mg/kg) | observed in mouse urine by LC/MS ([1]; male CD-1 mice, 5 mg/kg IV tigecycline, urine 0-4 hours) | Species and matrix in which identified ([2]; single IV tigecycline dose, LC/MS) | Species in which detected [4] | percent of the radioactivity in serum ([3]; male, human) | detection in serum samples [3]
CN(C)c1cc(NC(=O)CNC(C)(C)C)c(O)c2c1C[C@H]1C[C@H]3C(N(C)C)C(O[C@@H]4O[C@H](C(=O)O)[C@@H](O)[C@H](O)[C@H]4O)=C(C(N)=O)C(=O)[C@@]3(O)C(O)=C1C2=O (stereo in doubt) [Metabolite M7, tigecycline glucuronide] | detected | R-S, M-S, M-U | – | – | – | – | – | – | –
CN(C)c1cc(NC(=O)CNC(C)(C)C)c(O)c2c1C[C@H]1C[C@H]3[C@H](N(C)C)C(O)=C(C(N)=O)C(=O)[C@@]3(O)C(O)=C1C2=O [Tigecycline] | – | – | 59-80% | observed; also recorded: detected | detected | R-S, M-S, M-U | R, D, H | – | –
CC(C)(C)NCC(=O)O [Metabolite M3a, t-butylaminoacetic acid] | – | – | – | – | – | – | R, D, H | 10-20% | –
CN(C)c1cc(NC(=O)CNC(C)(C)C)c(O)c2c1C[C@H]1C[C@H]3[C@@H](N(C)C)C(O[C@@H]4O[C@H](C(=O)O)[C@@H](O)[C@H](O)[C@H]4O)=C(C(N)=O)C(=O)[C@@]3(O)C(O)=C1C2=O [Metabolite M6, epimer of tigecycline glucuronide] | detected | R-S, M-S, M-U | – | – | – | – | – | less than 4% | approximately half the serum samples
